ChEMBL document CHEMBL1201862, “PubChem BioAssay data set” (2004)
Activity calls are given as the source filed them.

Columns and labels:
[1] = insulin promoter down-regulators in MIN6 cells, imaging, high-content screening, mouse beta cells (AID 1628); format: functional
[2] = cytotoxicity in MIN6 insulinoma cells, dose response, cytotoxicity control, cell-based, mouse insulinoma (AID 2122); format: functional;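 also: confirmatory high-throughput counterscreen run to flag cytotoxic compounds; mouse MIN-6 beta cells carrying an insulin promoter eGFP reporter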
[3] = inhibitors of SNCA 5'UTR-driven reporter translation, confirmation, H4 neuroglioma cells, luminescence (AID 1988); format: functional, cell-based
[4] = target: Intestinal-type alkaline phosphatase (Mus musculus, UniProt P24822); test: PubChem AID 488874; format: functional
[5] = target: T1, Intestinal-type alkaline phosphatase (Homo sapiens, UniProt P09923); test: human intestinal alkaline phosphatase activators, dose response, biochemical, luminescence, uHTS hits (AID 463120); format: functional
[6] = target: T1, Intestinal-type alkaline phosphatase; test: human IAP activators, dose response, biochemical, luminescent, uHTS hits, set 2 (AID 488817); format: functional;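 also: potency of activators that raise enzyme activity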
[7] = human group III sPLA2 inhibitors, dose response, biochemical, QFRET, IC50 (AID 743457);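 also: green fluorescence rise as the enzyme cleaves BODIPY PC-A2 in liposomes; potency for inhibition of the enzyme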
[8] = target: T2, Sentrin-specific protease 8 (Homo sapiens, UniProt Q96LD8); format: functional
T2 sequence (Q96LD8 whole entry): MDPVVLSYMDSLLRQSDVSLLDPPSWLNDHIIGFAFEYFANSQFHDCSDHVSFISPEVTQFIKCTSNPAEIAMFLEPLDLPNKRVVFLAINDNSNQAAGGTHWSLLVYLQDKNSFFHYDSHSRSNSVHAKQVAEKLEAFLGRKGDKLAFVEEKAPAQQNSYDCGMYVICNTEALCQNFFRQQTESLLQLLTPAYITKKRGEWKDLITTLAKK

[9] = HepG2 cell cytotoxicity, dose response, cytotoxicity control for non-replicating M. tuberculosis project (AID 489018); format: functional; conditions: Mycobacterium tuberculosis
cells [10] = format: functional
[11] = inhibitors of HIV Env-driven cell fusion, dose response, cherry-pick (AID 652057); format: functional, cell-based
[12] = ZM109 Env clade C HIV-1 fusion inhibitors, dose response, HeLa effector, CEM target cells, luciferase, cherry-pick (AID 652058); format: functional, cell-based
[13] = off-target signal loss in HeLa-CEM21 co-culture – HeLa F-luc CTL cells, cherry-picked, counter-screen for HIV-1 Env fusion inhibitor project, dose response (AID 652040); format: functional, cell-based;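 also: potency for signal decrease marking cytotoxic or nonspecific inhibition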
[14] = inhibitors of clade B AD8 Env fusion, dose response, cell-based, cherry-pick (AID 652062); format: functional;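 also: luciferase signal from cell-cell fusion driven by HIV-1 clade B AD8 Env; potency is for inhibitors of fusion seen as a drop in luminescence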
cells [15] = format: functional, cell-based
cells [16] = format: functional, cell-based; remark: listed apart in the source
[17] = target: T3, Serine/threonine-protein phosphatase (Candida dubliniensis (strain CD36 / CBS 7987 / NCPF 3949 / NRRLY-17841) (Yeast), UniProt B9W6M3); test: calcineurin pathway inhibitors in yeast reporter, dose response, S. cerevisiae, CDRE-lacZ, luminescence, secondary (AID 2388); format: functional, cell-based;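 also: yeast reporter cells carrying a calcineurin-responsive lacZ construct stimulated with calcium chloride; luminescent beta-galactosidase reporter signal in whole cells rather than isolated phosphatase activity; potency for inhibition where a drop in reporter signal means calcineurin blockade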
T3 sequence (B9W6M3 whole entry): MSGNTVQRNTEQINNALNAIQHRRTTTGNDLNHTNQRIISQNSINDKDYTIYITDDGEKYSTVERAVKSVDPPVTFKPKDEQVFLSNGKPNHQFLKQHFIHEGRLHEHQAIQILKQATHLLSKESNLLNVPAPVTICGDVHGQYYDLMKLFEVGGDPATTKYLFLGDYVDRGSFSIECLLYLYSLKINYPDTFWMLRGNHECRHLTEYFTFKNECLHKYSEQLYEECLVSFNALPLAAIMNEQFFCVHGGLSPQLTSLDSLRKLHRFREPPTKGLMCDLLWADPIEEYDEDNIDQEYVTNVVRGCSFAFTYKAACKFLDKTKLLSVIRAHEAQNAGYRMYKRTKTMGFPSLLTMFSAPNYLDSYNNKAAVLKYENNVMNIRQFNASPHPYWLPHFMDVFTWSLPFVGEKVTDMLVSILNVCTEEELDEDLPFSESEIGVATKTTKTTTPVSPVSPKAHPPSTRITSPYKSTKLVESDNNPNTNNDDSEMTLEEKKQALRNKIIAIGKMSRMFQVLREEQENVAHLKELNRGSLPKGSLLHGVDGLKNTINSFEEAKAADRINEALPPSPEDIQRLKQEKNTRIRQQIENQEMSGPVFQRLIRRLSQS

[18] = cytotoxicity toward NIH3T3 fibroblasts, dose response, counter-screen, cell-based, ATP luminescence, mouse fibroblasts (AID 2010); format: functional;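 also: cells exposed to compound for about 90 hours before reading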
[19] = target: Heat shock protein HSP 90-alpha (Homo sapiens, UniProt P07900); format: functional, organism-based
HEK293 = test: cytotoxicity in HEK293T NF-kB-Luc cells, SAR follow-up, cytotoxicity control for NF-kB activator project, cell-based, resazurin fluorescence (AID 493251); format: functional; conditions: Homo sapiens
Jurkat = test: SAR Analysis of small molecule inhibitors of T-cell specific antigen receptor-induced NF-kB activation in a Jurkat cell line using a luminescence assay - Set 2. [Related pubchem assays (depositor defined):AID435003, AID435012, AID465]; format: functional, cell-based; conditions: Homo sapiens
[20] = target: ATP-dependent molecular chaperone HSP82 (Candida albicans (strain WO-1) (Yeast), UniProt C4YTQ8); test: loss of DOC-induced GRE-beta-galactosidase reporter signal, dose response, Hsp90 inhibitor project, S. cerevisiae, luminescence (AID 2400); format: functional, cell-based;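 also: beta-galactosidase luminescence from glucocorticoid response element reporter as proxy for Hsp90 function; inhibitor potency where signal loss means Hsp90 inhibition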
[21] = Shn3 3'UTR reporter inhibitors, dose response, cell-based, Clone20 osteoblasts, firefly luciferase, cherry-picked (AID 624132); format: functional;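 also: firefly luciferase luminescence from reporter carrying the Shn3 3'UTR in osteoblasts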
[22] = control 3'UTR Renilla luciferase suppression, dose response, counter-screen for Shn3 inhibitor project, cell-based, Clone20-Shn3RL, cherry-picked (AID 624133); format: functional
[23] = PAX2 cell-based inhibition, dose response, selectivity assay for PAX8 inhibitor project, plate reader, dry powder samples (AID 743048); format: functional;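 also: HEK293 cells carrying a WT1 promoter luciferase reporter driven by expressed Pax2; potency is for inhibition of Pax2 driven reporter signal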
[24] = IOSE-T80 ovarian epithelial cell cytotoxicity, dose response, cytotoxicity control for PAX8 inhibitor project, plate reader, dry powder samples (AID 743045); format: functional, cell-based
[25] = A2780 ovarian cancer cell cytotoxicity, dose response, cytotoxicity control, plate reader, dry powder samples (AID 743046); format: functional, cell-based
[26] = NIH:OVCAR-3 ovarian cancer cell cytotoxicity, dose response, PAX8 inhibitor project, plate reader, dry powder samples (AID 743044); format: functional, cell-based
[27] = PAX5 activity inhibitors, dose response, selectivity assay for PAX8 inhibitor project, cell-based, plate reader, dry powder samples (AID 743047); format: functional;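 also: HEK293 cells carrying a Pax5 driven CD19 promoter luciferase reporter; potency of inhibitors that lower reporter luminescence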
[28] = cytotoxicity in COV434 cells, dose response, cytotoxicity control for PAX8 inhibitor project, cell-based, plate reader, dry powder, SA7 (AID 743145); format: functional
[29] = non-specific cell cytotoxicity, dose response, cytotoxicity control for PAX8 inhibitor project, plate reader, dry powder samples (AID 743021); format: functional, cell-based
[30] = cytotoxicity dependent on PAX8, dose response, cell-based, plate reader, dry powder (AID 743049); format: functional

T1 sequence (P09923 whole entry): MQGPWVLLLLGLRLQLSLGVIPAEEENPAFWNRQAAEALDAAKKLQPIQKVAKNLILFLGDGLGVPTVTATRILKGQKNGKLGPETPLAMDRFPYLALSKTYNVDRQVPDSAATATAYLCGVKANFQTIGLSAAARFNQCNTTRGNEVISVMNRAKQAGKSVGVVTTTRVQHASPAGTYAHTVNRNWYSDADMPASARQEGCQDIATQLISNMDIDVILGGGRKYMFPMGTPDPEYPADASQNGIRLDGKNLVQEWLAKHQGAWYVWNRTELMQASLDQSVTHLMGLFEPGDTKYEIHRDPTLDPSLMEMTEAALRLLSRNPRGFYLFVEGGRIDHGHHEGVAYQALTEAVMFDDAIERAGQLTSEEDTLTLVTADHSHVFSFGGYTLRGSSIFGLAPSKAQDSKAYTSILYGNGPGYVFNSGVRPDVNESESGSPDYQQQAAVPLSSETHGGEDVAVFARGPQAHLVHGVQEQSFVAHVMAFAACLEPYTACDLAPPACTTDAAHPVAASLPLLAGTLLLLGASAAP
Chain of Intestinal-type alkaline phosphatase (Mus musculus, UniProt P24822) (P24822 whole entry): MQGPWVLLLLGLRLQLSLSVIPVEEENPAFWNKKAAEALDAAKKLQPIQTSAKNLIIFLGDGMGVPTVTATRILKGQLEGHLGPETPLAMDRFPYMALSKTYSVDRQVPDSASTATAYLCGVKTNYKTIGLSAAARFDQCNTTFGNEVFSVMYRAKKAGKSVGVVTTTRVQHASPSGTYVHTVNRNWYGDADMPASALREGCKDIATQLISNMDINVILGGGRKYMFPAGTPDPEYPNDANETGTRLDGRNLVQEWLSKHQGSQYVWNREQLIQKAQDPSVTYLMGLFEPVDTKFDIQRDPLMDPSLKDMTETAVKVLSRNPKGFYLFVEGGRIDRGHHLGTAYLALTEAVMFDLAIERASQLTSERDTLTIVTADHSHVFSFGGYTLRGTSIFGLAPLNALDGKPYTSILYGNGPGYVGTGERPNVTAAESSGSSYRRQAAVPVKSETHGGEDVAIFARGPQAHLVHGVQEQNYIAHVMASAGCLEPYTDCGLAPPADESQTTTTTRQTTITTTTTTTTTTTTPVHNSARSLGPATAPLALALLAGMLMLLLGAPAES
Chain of ATP-dependent molecular chaperone HSP82 (C4YTQ8 whole entry): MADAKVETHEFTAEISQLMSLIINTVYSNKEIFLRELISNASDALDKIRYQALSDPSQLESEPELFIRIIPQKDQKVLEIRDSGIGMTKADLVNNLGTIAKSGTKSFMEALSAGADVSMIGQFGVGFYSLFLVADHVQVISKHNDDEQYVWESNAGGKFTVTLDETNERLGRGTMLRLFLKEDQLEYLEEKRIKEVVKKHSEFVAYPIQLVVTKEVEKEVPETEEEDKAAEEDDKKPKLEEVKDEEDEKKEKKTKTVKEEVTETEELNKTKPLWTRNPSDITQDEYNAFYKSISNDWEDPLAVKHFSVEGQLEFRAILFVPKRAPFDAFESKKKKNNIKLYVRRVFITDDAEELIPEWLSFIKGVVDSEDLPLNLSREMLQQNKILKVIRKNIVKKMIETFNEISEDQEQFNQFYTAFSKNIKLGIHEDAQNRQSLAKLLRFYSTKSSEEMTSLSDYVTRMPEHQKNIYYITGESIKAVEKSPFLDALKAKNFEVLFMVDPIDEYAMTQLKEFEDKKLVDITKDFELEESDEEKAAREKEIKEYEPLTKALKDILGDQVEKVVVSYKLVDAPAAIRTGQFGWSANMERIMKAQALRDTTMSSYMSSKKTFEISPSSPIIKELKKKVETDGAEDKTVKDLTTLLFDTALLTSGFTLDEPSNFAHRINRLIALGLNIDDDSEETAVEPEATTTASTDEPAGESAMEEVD

O=C(/C=C/c1cccs1)NC(=S)NNC(=O)c1ccccc1O
IC50 [1]: 2.78 µM (active) | IC50 [2]: 2.57 µM (active) | EC50 [3]: > 120 µM (not active) | IC50 [4]: 70.4 µM (active) | EC50 [5]: 8.8 µM (active) | EC50 [6]: 11 µM (active) | IC50 [7]: > 122 µM (inactive)

O=C(N/N=C1\C/C(=N\NC(=O)c2ccncc2)c2ccccc21)c1ccncc1
IC50 [8]: 5.02 µM (active)

CC(=O)N(Cc1ccc(F)cc1)C1=C(NCCc2ccccc2)C(=O)c2ccccc2C1=O
CC50 [9]: 5.95 µM (active) | IC50 (cells [10]): 3.23 µM (active) | AC50 [11]: 2.45 µM (active) | AC50 [12]: 5.61 µM (active) | AC50 [13]: 5.21 µM (active) | AC50 [14]: 8.23 µM (active)

CCCCC(=O)NC(c1ccccc1)c1ccc2cccnc2c1O (configuration not stated)
EC50 (cells [15]): 7.75 µM (active) | EC50 (cells [16]): > 350 µM (not active) | EC50 [17]: > 180 µM (inactive) | EC50 [18]: 1.03 µM (active) | AC50 [19]: 25.5 µM (active) | IC50 (HEK293): 10.6 µM (active) | IC50 (Jurkat): 5.62 µM (active) | EC50 [20]: 24.2 µM (active) | AC50 [21]: 2.35 µM (active) | AC50 [22]: 1.31 µM (active) | AC50 [23]: 2.15 µM (active) | AC50 [24]: 10.9 µM (active) | AC50 [25]: 2.13 µM (active) | AC50 [26]: 2.45 µM (active) | AC50 [27]: 2.37 µM (active) | AC50 [28]: 4.16 µM (active) | AC50 [29]: 63.3 µM (active) | AC50 [30]: 9.11 µM (active)
